From ChEMBL document CHEMBL1148964, “New furofuran and butyrolactone lignans with antioxidant activity from the stem bark of Styrax japonica” (J Nat Prod, 2004)

System: Radical scavenging activity
Test: Antioxidant activity assessed as DPPH radical scavenging activity after 30 mins
Assay type: functional

Row | SMILES | IC50
1 | COc1cc(/C=C/CO)cc(OC)c1O[C@@H]1O[C@H](CO)[C@@H](O)[C@H](O)[C@H]1O [SYRINGIN] | > 500 µM
2 | CC1(C)CC[C@]2(C)CC=C3[C@]4(C)CC[C@H]5C(C)(C)[C@@H](O)CC[C@]5(C)[C@H]4CC[C@@]3(C)[C@@H]2C1 [TARAXEROL] | > 500 µM
3 | COc1cc([C@@H]2OC[C@@H]3[C@H]2C(=O)O[C@H]3c2ccc3c(c2)OCO3)ccc1O[C@@H]1O[C@H](CO)[C@@H](O)[C@H](O)[C@H]1O [STYRAXLIGNOLIDE B] | > 500 µM
4 | Cc1c(C)c2c(c(C)c1O)CC[C@@](C)(CCC[C@H](C)CCC[C@H](C)CCCC(C)C)O2 [ALPHA-TOCOPHEROL] | 20.1 µM

Second part, the molecule after the results:

Row | IC50 | SMILES
5 | 380 µM | COc1ccc(C[C@@H]2C(=O)OC[C@H]2Cc2ccc(O[C@@H]3O[C@H](CO)[C@@H](O)[C@H](O)[C@H]3O)c(OC)c2)cc1O [STYRAXLIGNOLIDE C]
6 | 194 µM | COc1cc(C[C@@H]2COC(=O)[C@H]2Cc2ccc(O[C@@H]3O[C@H](CO)[C@@H](O)[C@H](O)[C@H]3O)c(OC)c2)ccc1O [STYRAXLIGNOLIDE E]
7 | > 500 µM | COc1ccc(C[C@@H]2C(=O)OC[C@H]2Cc2ccc(O[C@@H]3O[C@H](CO)[C@@H](O)[C@H](O)[C@H]3O)c(OC)c2)cc1OC [STYRAXLIGNOLIDE F]
8 | 278 µM | COc1cc(C[C@@H]2C(=O)OC[C@H]2Cc2ccc(O[C@@H]3O[C@H](CO)[C@@H](O)[C@H](O)[C@H]3O)c(OC)c2)ccc1O [STYRAXLIGNOLIDE D]
